Results on 15 molecules are retold here after article PMC6445159, “Resorcinol-, catechol- and saligenin-based bronchodilating β2-agonists as inhibitors of human cholinesterase activity” (Journal of Enzyme Inhibition and Medicinal Chemistry, 2017).

Like-named read-outs stand apart in the source and are kept apart here.

Experiment [1] addresses T1, fluoride-resistant BChE (Homo sapiens, UniProt P06276). Conditions: substrate PTCh, K(I) ± SE. How it is done:
(§1) ATCh was used as a substrate for AChE and PTCh as a substrate for BChE. The reaction mixture contained DTNB (final concentration 0.3 mM), buffer, enzyme suspension, inhibitor (0.5–10 mM) and ATCh or PTCh (0.025–1.0 mM). Inhibition of enzymes was determined by measuring the decrease in enzyme activity in the presence of inhibitors.
(§2) The dissociation constant for an enzyme–inhibitor complex K(I) was evaluated from the impact of substrate concentrations [S] on the degree of inhibition applying the Hunter–Downs equation[17]^,[39]: Ki,app=vi/v0-vi·[I]=K(I)+K(I)/K(S)·[S] where Ki,app is an apparent enzyme-reversible inhibitor complex dissociation constant obtained at a given substrate concentration [S] in the presence of inhibitor concentration [I] and calculated from the enzyme activities v0 and vi measured without inhibitor and in the presence of inhibitor concentration [I], respectively. K(I) is the enzyme-reversible inhibitor complex dissociation constant and can stand for a complex formed at the catalytic site or for a complex formed at the peripheral site of the enzyme. K(S) is the enzyme-substrate dissociation constant that could be approximated to the Michaelis constant or to the enzyme-substrate dissociation constant when two molecules of the substrate are bound to the enzyme.

Experiment [2] has as its target T2, atypical BChE (Homo sapiens, UniProt P06276, D98G).
T2 construct: Human native serum was used as a source of BChE; from tissue; host or cells: human serum
In words: Reversible inhibition of atypical BChE (Ellman method, Hunter–Downs evaluation). It is filed as biochemical. How it is done: as §1, §2
For orientation: DTNB colorimetry detects thiols as they appear.

In experiment [3] the target is T3, human AChE (Homo sapiens, UniProt P22303). The experiment can be described thus: biochemical. It counts as biochemical. How it is done:
as §1, §2

In experiment [4] the target is T4, usual BChE (Homo sapiens, UniProt P06276).
T4 construct: Human native serum was used as a source of BChE; from tissue; host or cells: human serum (donor, IMROH Zagreb)
The experiment can be described thus: biochemical. Conditions: for inhibition potency higher than other compounds of the same group: usual BChE, versus other resorcinol-, catechol- or saligenin-based compounds. It is filed as biochemical. How it is done:
as §1, §2

Experiment [5] deals with T2, atypical BChE. Conditions: K(I) ± SE; cited from earlier work.
Experiment [6] addresses T4, usual BChE. Conditions: K(I) ± SE, cited from earlier work.
Experiment [7] concerns the target T1, fluoride-resistant BChE. Conditions: K(I) ± SE; cited from earlier work.
Experiment [8] deals with T3, human AChE. Conditions: K(I) ± SE; cited from earlier work.
The test system of experiment [9] is β-adrenoceptor. Conditions: more potent than (S)-enantiomer; cited from earlier work.
Where [10] appears, read: racemate, 0.1 M phosphate buffer pH 7.4, 25 °C.
[11] abbreviates: enantiomers, substrate PTCh, pH 7.4, 25 °C, K(I) ± SE, read-out: K(I).
Setting [12] is: enantiomers, substrate ATCh, pH 7.4, 25 °C, K(I) ± SE, read-out: K(I).

T1 sequence (P06276 29-602, change not shown): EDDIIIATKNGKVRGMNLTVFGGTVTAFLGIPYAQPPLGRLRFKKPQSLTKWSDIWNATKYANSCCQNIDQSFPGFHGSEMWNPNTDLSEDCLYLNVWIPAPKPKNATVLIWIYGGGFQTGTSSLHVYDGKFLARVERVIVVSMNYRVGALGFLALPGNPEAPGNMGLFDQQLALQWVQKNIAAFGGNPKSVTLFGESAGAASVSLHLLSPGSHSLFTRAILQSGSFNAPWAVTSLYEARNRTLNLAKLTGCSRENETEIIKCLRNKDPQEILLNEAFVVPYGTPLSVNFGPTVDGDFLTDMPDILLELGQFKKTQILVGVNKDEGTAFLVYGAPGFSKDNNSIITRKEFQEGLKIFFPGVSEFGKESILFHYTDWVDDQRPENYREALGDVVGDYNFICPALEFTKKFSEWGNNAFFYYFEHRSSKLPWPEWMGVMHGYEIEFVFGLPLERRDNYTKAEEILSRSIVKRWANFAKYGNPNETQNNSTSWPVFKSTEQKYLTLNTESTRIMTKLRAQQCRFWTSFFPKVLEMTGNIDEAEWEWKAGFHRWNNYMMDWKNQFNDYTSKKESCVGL
T4 sequence (P06276 29-602): as the sequence (P06276 29-602, change not shown) above
T3 sequence (P22303 32-614): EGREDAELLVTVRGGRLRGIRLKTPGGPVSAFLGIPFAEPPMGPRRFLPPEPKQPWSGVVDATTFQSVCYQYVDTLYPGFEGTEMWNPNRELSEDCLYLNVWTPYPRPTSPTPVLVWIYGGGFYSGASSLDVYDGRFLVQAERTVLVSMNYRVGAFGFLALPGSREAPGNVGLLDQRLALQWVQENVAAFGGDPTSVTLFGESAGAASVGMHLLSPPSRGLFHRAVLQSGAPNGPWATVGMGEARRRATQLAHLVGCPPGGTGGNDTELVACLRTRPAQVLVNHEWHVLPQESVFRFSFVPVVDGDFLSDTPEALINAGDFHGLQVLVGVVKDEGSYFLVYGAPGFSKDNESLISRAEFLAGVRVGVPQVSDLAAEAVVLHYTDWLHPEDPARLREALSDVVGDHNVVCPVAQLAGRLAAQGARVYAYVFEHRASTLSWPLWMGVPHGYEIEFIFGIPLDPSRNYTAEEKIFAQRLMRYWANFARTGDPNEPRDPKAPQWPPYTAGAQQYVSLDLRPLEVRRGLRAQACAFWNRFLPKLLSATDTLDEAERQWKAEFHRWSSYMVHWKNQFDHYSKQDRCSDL
T2 sequence (P06276 29-602 D98G): as the sequence (P06276 29-602, change not shown) above, with D70G counted along it

In the case of `CC(C)(C)NCC(O)c1ccc(O)c(CO)c1` (centres unmarked) [Salbutamol], the Ki in [1] (setting [10]) amounted to 190 ± 20 µM; in experiment [2] it was 1.4 ± 0.2 mM; in [3], 2 ± 0.2 mM; in [4], 71 ± 6 µM. Further, the higher inhibition potency result in experiment [3] (AChE, compared to terbutaline) was “two times”. The “selectivity: inhibition of usual BChE more potent than AChE (ratio of K(I) constants)” value in [4] was 28 times.
For `CC(Cc1ccc(O)cc1)NCC(O)c1cc(O)cc(O)c1` (centres unmarked) [Fenoterol], the Ki in experiment [1] (setting [10]) is 61 ± 17 µM; in experiment [2], 0.63 ± 0.03 mM; in [3], 0.86 ± 0.05 mM; in experiment [4] it was 24 ± 1 µM.
For `CC(C)NCC(O)c1cc(O)cc(O)c1` (centres unmarked) [Metaproterenol], the figures for the Ki in [5], in experiment [6] and in [7] were 6.1 ± 0.7 mM, 550 ± 110 µM and 870 ± 180 µM, respectively.
For `CC(C)(C)NCC(O)c1cc(O)cc(O)c1` (centres unmarked) [Terbutaline], the Ki in experiment [5] was 3.3 ± 0.7 mM; in experiment [6] it was 180 ± 150 µM; in [3] (read-out: K(I)), 4.8 ± 0.2 mM; in [7] it was 300 ± 320 µM. Besides, the “selectivity: inhibition of usual BChE more potent than AChE (ratio of K(I) constants)” value in [4] stood at 27 times.
With `CC(C)NC[C@H](O)c1ccc(O)c(O)c1` [(R)-isoproterenol], the Ki was determined as 1400 ± 200 µM in experiment [1] (enantiomers, pH 7.4, 25 °C); 1.4 ± 0.1 mM in [2] (setting [11]); 2 ± 0.5 mM in [3] (setting [12]); 810 ± 130 µM in experiment [4] (setting [11]).
Regarding `CC(C)(C)NC[C@@H](O)c1ccc(O)c(CO)c1` [(S)-salbutamol], the Ki in experiment [1] (enantiomers, pH 7.4, 25 °C) came out at 300 ± 40 µM; in experiment [2] (setting [11]), 1.5 ± 0.2 mM; in experiment [3] (setting [12]), 1.8 ± 0.1 mM; in experiment [4] (setting [11]), 310 ± 50 µM.
Regarding `CC(C)NCC(O)c1ccc(O)c(O)c1` (centres unmarked) [Isoproterenol], the Ki was 1.6 ± 0.3 mM in experiment [5], 470 ± 210 µM in experiment [6] (read-out: K(I)), 990 ± 120 µM in experiment [7] and 2.5 ± 1 mM in [8]. Further, the “increase in inhibition potency” value in experiment [3] (AChE, compared to epinephrine) was found to be 2 fold.
`OCc1cc([C@H](O)CNCCCCCCOCCCCc2ccccc2)ccc1O` [(S)-salmeterol]: the Ki in experiment [1] (enantiomers, pH 7.4, 25 °C) was 20 ± 3 µM; in [2] (setting [11]), 0.067 ± 0.013 mM; in experiment [3] (setting [12]) it was 0.028 ± 0.006 mM; in experiment [4] (setting [11]) it was 15 ± 1 µM.
On to `CNC[C@H](O)c1ccc(O)c(O)c1` [Epinephrine], for which the Ki stood at 3800 ± 1500 µM in experiment [1] (setting [10]), 1.6 ± 1 mM in experiment [2] (read-out: K(I)), 6.4 ± 1.1 mM in experiment [3] and 3700 ± 1200 µM in experiment [4]. The “selectivity: inhibition of usual BChE more potent than AChE (ratio of K(I) constants)” value in experiment [4] is “lowest selectivity”.
Turning to `CC(C)(C)NC[C@H](O)c1cc(O)cc(O)c1` [(R)-terbutaline], the Ki in experiment [1] (enantiomers, pH 7.4, 25 °C) stood at 220 ± 50 µM; in experiment [2] (setting [11]) it was 1 ± 0.1 mM; in [3] (setting [12]), 2 ± 0.3 mM; in experiment [4] (setting [11]) it was 110 ± 30 µM. Moreover, the “stereoselectivity: preference for (R) enantiomer over racemate” value was determined as 3 fold in experiment [2] (atypical BChE, K(I) racemate versus (R) enantiomer) and 2 fold in experiment [3] (AChE, K(I) racemate versus (R) enantiomer).
Consider `OCc1cc([C@@H](O)CNCCCCCCOCCCCc2ccccc2)ccc1O` [(R)-salmeterol], for which the Ki in experiment [1] (enantiomers, pH 7.4, 25 °C) is 31 ± 4 µM; in experiment [2] (setting [11]) it was 0.071 ± 0.019 mM; in experiment [3] (setting [12]), 0.033 ± 0.003 mM; in [4] (setting [11]), 15 ± 1 µM.
On to `CC(C)(C)NC[C@H](O)c1ccc(O)c(CO)c1` [(R)-salbutamol], for which the Ki in [1] (enantiomers, pH 7.4, 25 °C) came to 300 ± 60 µM; in experiment [2] (setting [11]), 2.3 ± 0.2 mM; in [3] (setting [12]), 4 ± 0.3 mM; in experiment [4] (setting [11]), 190 ± 40 µM. The “potency as β-adrenoceptor agonist relative to (S)-enantiomer” value in experiment [9] was “approximately 80 times”.
(R)-epinephrine: the Ki in experiment [2] (setting [11]) is 12 ± 2 mM; in [3] (setting [12]), 3.2 ± 0.4 mM; in [4] (setting [11]) it was 4700 ± 1800 µM.
As to `OCc1cc(C(O)CNCCCCCCOCCCCc2ccccc2)ccc1O` (centres unmarked) [Salmeterol], the Ki in experiment [1] (setting [10]) amounted to 9.8 ± 2.3 µM; in experiment [2] it was 0.086 ± 0.018 mM; in [3] it was 0.03 ± 0.002 mM; in experiment [4] it was 13 ± 1 µM. In experiment [3] (AChE, salmeterol versus salbutamol), the “increase in inhibition potency” value is given as 67 fold. Also, in experiment [4], the “selectivity: inhibition of usual BChE more potent than AChE (ratio of K(I) constants)” value is given as “two times”. The “inhibition potency higher than other compounds of the same group” value in experiment [4] is not above 5.5 times.
Regarding `CCC(NC(C)C)C(O)c1ccc(O)c(O)c1` (centres unmarked) [Isoetharine], the Ki in experiment [1] (setting [10]) was 86 ± 4 µM; in experiment [2] it was 0.26 ± 0.05 mM; in experiment [3] (read-out: K(I)) it was 0.21 ± 0.04 mM; in experiment [4] (read-out: K(I)), 31 ± 3 µM. In experiment [3] (AChE, compared to isoproterenol), this molecule displayed a higher inhibition potency of 12 fold. The “inhibition potency higher than other compounds of the same group” value in [4] is not above 120 times.
